Assay results: patent publication US11219607B2, “Methods for suppressing cancer-related cachexia” (Ohio State Innovation Foundation, priority 2013, dated 2022)

What was measured:
Format in all cases: in vivo, CD2F1 mice
Atrogin-1/MAFbx mRNA = assay: qPCR of gastrocnemius muscle, C-26 model: Atrogin-1; conditions: C-26 tumor-bearing mice, 15 days after tumor cell injection, tumor-bearing/vehicle 29.4±3.5-fold, mean±S.D.
Protocol: (§1) Total RNA was isolated from homogenized gastrocnemius muscles (n=3/group) with TRIzol reagent (Life Technologies, Carlsbad, Calif.) and then purified using the RNAeasy Mini Kit (Qiagen, Valencia, Calif.). qRT-PCR was performed as described previously (42) by using the Bio-Rad CFX96 Real-Time PCR Detection System with iQ SYBR Green Supermix (Bio-Rad, Hercules, Calif.). RNA-seq library generation and data analysis were performed at The Ohio State University Comprehensive Cancer Center (OSUCCC) Nucleic Acid Shared Resource.
(§2) AR-42 was able to restore expression of Atrogin-1 (2.7±0.7-fold) and MuRF1 (1.1±0.2-fold) mRNA to basal levels […].

MuRF1 mRNA = assay: qPCR of gastrocnemius muscle, C-26 model: MuRF1; conditions: C-26 tumor-bearing mice, 15 days after tumor cell injection, tumor-bearing/vehicle 25.8±3.9-fold, mean±S.D.
Protocol: as §1, §2

IL-6 = assay: Serum cytokine profiling, C-26 model: IL-6; conditions: C-26 tumor-bearing mice, day 17; tumor-bearing/vehicle 230±105, tumor-free/vehicle 2.9±1.3
Description: (§3) Gastrocnemius muscles and sera were collected at day 17 post-cell injection from each treatment group (n=8/group). Muscle was submitted to Metabolon, Inc. (Durham, N.C.) for metabolomic analysis of 270 metabolic intermediates via proprietary mass spectrometry platforms. Serum was submitted to Eve Technologies (Alberta, Canada) for analysis of 32 cytokines using a mouse cytokine array (32-plex panel).
(§4) To shed light onto the mechanism by which AR-42 mediated its anti-cachectic effect, sera and gastrocnemius muscle from vehicle- or AR-42-treated tumor-free and C-26 tumor-bearing mice were used for cytokine profiling analysis and whole transcriptome shotgun sequencing (RNA-seq), respectively.

[1] = test system: leukemia inhibitory factor (LIF); assay: Serum cytokine profiling, C-26 model: LIF; conditions: C-26 tumor-bearing mice, day 17; tumor-bearing/vehicle 19.7±9.3, tumor-free/vehicle 1.7±1.5
Description: as §3, §4

## CC(C)[C@H](C(=O)Nc1ccc(C(=O)NO)cc1)c1ccccc1 [AR-42, (S)—N-hydroxy-4-(3-methyl-2-phenylbutanamido)benzamide]
Atrogin-1/MAFbx mRNA
  Atrogin-1 mRNA level relative to tumor-free/vehicle control: 2.7±0.7 fold
MuRF1 mRNA
  MuRF1 mRNA level relative to tumor-free/vehicle control: 1.1±0.2 fold
IL-6
  serum IL-6 level: 102 ± 38 pg/mL
[1]
  serum LIF level: 3.8 ± 1.6 pg/mL
